Like-named read-outs stand apart in the source and are kept apart here. A value given as a limit tells only on which side of the number the result lay.

Drawing on US6559177B2, “5, 11-Dioxa-benzo[b]fluoren-10-one and 5-oxa-11-thia-benzo[b]fluoren-10-ones as estrogenic agents” (Wyeth, priority 2001, dated 2003), this text covers IC50 for nine molecules.

One experiment deals with T1, human ERβ (Homo sapiens, UniProt Q92731).
T1 construct: made in house; host or cells: E. coli (crude lysate)
The experiment in a line: Competition with [3H]-17β-estradiol for binding to ERβ ligand binding domain. As for the experimental part: (§1) This test procedure provides the methodology for one to determine whether a particular compound binds to the estrogen receptor (and is therefore “estrogenic”) and whether there is selectivity for ERα or ERβ. […] The procedure used is briefly described below. A crude lysate of E. coli expressing the estrogen receptor ligand binding domains (D,E, & F) of human ERα or ERβ was prepared. Both receptors and compounds were diluted in 1× Dulbecco's PBS (DPBS) supplemented with 1 mM EDTA. […] After between 5 and 15 hours at room temperature, the plates were washed with DPBS/1 mM EDTA and bound radioactivity determined by liquid scintillation counting.

For the next experiment, the target named is T2, human ERα (Homo sapiens, UniProt P03372).
T2 construct: made in house; host or cells: E. coli (crude lysate)
T2 sequence (P03372 311-547 limits assumed): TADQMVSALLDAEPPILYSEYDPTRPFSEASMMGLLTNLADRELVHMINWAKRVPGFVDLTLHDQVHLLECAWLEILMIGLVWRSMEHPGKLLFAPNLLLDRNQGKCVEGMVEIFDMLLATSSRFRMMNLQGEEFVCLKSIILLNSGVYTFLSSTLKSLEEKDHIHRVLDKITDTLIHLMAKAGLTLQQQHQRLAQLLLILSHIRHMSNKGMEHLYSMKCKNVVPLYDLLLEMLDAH
Description: Competition with [3H]-17β-estradiol for binding to ERα ligand binding domain. The conditions noted are these: E. coli lysate expressing ER ligand binding domains (D,E,&F); 2 nM [3H]-17β-estradiol; 5-15 hours at room temperature. How it is done:
as §1

Where [1] appears, read: E. coli lysate expressing ER ligand binding domains (D,E,&F); 2 nM [3H]-17β-estradiol; 5-15 hours at room temperature; read-out: ERβ IC50.
Setting [2] is: read-out: ERβ IC50; E. coli lysate expressing ER ligand binding domains (D,E,&F); 2 nM [3H]-17β-estradiol; 5-15 hours at room temperature.

T1 sequence (Q92731 264-498 limits assumed): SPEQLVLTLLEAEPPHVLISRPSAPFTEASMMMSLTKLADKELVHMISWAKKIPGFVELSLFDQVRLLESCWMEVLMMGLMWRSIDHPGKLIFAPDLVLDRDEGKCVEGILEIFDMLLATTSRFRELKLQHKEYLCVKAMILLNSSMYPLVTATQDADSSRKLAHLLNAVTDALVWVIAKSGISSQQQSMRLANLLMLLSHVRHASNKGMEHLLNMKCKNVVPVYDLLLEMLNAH

For orientation: IC50 means the concentration that gives 50% inhibition. With `O=c1c2oc3ccc(O)cc3c2oc2cc(O)cc(O)c12` [3,7,9-Trihydroxy-5,11-dioxa-benzo[b]fluoren-10-one], the values for the IC50 on human ERβ (setting [1]) and on human ERα were 70 nM and 2950 nM, respectively.
Regarding `O=c1c2ccc(O)cc2oc2c1oc1cc(O)ccc12` [2,7-Dihydroxy-5,11-dioxa-benzo[b]fluoren-10-one], the IC50 came out at 32 nM at human ERβ (setting [1]) and 550 nM on human ERα.
For the molecule `O=c1c2ccc(O)cc2oc2c1oc1ccc(O)cc12` [3,7-Dihydroxy-5,11-dioxa[b]fluoren-10-one], the IC50 at human ERβ (setting [1]) amounted to 850 nM.
As to `O=c1c2sc3ccccc3c2oc2cc(O)cc(O)c12` [7,9-Dihydroxy-5-oxa-11-thia-benzo[b]fluoren-10-one], the IC50 was determined as 760 nM at human ERβ (setting [1]) and 3670 nM on human ERα.
On to `O=c1c2ccc(O)cc2oc2c1sc1ccccc12` [7-Hydroxy-5-oxa-11-thia-benzo[b]fluoren-10-one], for which, at human ERβ (setting [2]), the IC50 is 2930 nM.
With `O=c1c2cc(O)ccc2oc2c1oc1ccc(O)cc12` [3,8-Dihydroxy-5,11-dioxa[b]fluoren-10-one], the IC50 was found to be 44 nM on human ERβ (setting [1]) and 188 nM at human ERα.
Turning to `O=c1c2oc3ccccc3c2oc2cc(O)cc(O)c12` [7,9-Dihydroxy-5,11-dioxa-benzo[b]fluoren-10-one], the IC50 at human ERβ (setting [2]) was found to be 3190 nM.
With `O=c1c2cc(O)ccc2oc2c1oc1cc(O)ccc12` [2,8-Dihydroxy-5,11-dioxa[b]fluoren-10-one], the IC50 amounted to 192 nM on human ERβ (setting [1]) and 1500 nM at human ERα.
Regarding `O=c1c2ccc(O)cc2oc2c1oc1c3ccccc3ccc21` [9-Hydroxy-7,13-dioxa-dibenzo[a,h]fluoren-12-one], the IC50 at human ERβ (setting [1]) is 2710 nM; at human ERα it was greater than 5000 nM.
